In brackets after ≈: the same amount, converted by molar mass. Activity calls are given as the source filed them. No cut-off for these calls is given here.
Columns and labels:
[1] = biological target: T1, 1,4-dihydroxy-2-naphthoate octaprenyltransferase (Mycobacterium tuberculosis, UniProt P9WIP3); experiment: Displacement of [3H]FPP from Mycobacterium tuberculosis mc2 6230 membrane protein MenA incubated for 30 mins by liquid scintillation spectrometry; type: cell membranes
T1 sequence (P9WIP3 whole entry): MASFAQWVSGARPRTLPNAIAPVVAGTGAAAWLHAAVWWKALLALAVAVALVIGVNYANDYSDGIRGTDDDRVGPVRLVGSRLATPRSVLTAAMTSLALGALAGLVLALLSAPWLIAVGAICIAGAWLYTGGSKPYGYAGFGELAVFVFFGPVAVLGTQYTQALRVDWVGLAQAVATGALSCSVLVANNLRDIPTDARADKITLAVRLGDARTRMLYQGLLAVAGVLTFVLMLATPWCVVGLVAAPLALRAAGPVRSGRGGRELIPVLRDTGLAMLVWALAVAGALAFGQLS

[2] = system: Mycobacterium tuberculosis; experiment: Antibacterial activity against Mycobacterium tuberculosis mc2 6230 assessed as bacterial growth inhibition incubated for 5 days by absorbance based assay; type: functional, organism-based; details: mc2 6230, 120 h; for GI50: time 5 day
[3] = system: Mycobacterium tuberculosis; experiment: Displacement of 14C-SAM from Mycobacterium tuberculosis membrane MenG assessed as reduction in MK8 synthesis at 12.5 uM incubated for 1 hr by liquid scintillation counting method; type: cell membranes
[4] = system: Mycobacterium tuberculosis; experiment: Antibacterial activity against Mycobacterium tuberculosis H37Rv (ATCC 27294) assessed as bacterial growth inhibition incubated for 7 days by microdilution alamarBlue assay; type: functional; details: 168 h, time 7 day
[5] = system: Mycobacterium tuberculosis; experiment: Bactericidal activity against Mycobacterium tuberculosis H37RvLP (ATCC 25618) at 50 to 100 uM; type: functional, organism-based; details: dose 50-100 µM
[6] = system: Mycobacterium tuberculosis; experiment: Synergistic bactericidal activity against Mycobacterium tuberculosis H37RvLP (ATCC 25618) incubated for 14 days in presence of CPZ relative to control; type: functional; details: time 14 day
[7] = system: Mycobacterium tuberculosis; experiment: Synergistic bactericidal activity against Mycobacterium tuberculosis H37RvLP (ATCC 25618) assessed as fold increase in activity upto 100 uM in presence of CPZ; type: functional
[8] = system: Mycobacterium tuberculosis; experiment: Synergistic bactericidal activity against Mycobacterium tuberculosis H37RvLP (ATCC 25618) assessed as fold increase in activity at <12.5 uM in presence of IMP; type: functional
[9] = system: Mycobacterium tuberculosis; experiment: Synergistic bactericidal activity against Mycobacterium tuberculosis H37RvLP (ATCC 25618) at 25 uM in presence of Q203; type: functional, organism-based
[10] = system: Mycobacterium tuberculosis; experiment: Synergistic bactericidal activity against Mycobacterium tuberculosis H37RvLP (ATCC 25618) at 25 uM in presence of IMP; type: functional, organism-based
[11] = system: Mycobacterium tuberculosis; experiment: Antibacterial activity against Mycobacterium tuberculosis assessed as bacterial growth inhibition; type: functional

SMILES	IC50 ([1]; read-out: IC50)	GI50 [2]	other results
CCCN(C)c1ccc(CN2CCC(COc3ccc(Br)cc3)CC2)cc1	12 µM	11 µM	–
CCCN(C)c1ccc(CN2CCC(COc3ccccc3)CC2)cc1	64 µM	27 µM	–
CCCN(C)c1ccc(CN2CCC(COc3ccccc3Cl)CC2)cc1	31 µM	39 µM	–
COc1ccc(-c2cc(NC(=O)c3ccc(Cl)cc3F)ccc2OC)cc1	–	–	inhibition [3]: Active; MIC90 [4]: 4.8 µg/mL (≈ 12.4 µM)
CCCN(C)c1ccc(CN2CCC3(CC2)CC(Oc2cccc(Oc4ccccc4)c2)CO3)cc1 (stereo unspecified)	–	9 µM	–
CCCN(C)c1ccc(CN2CCC(COc3cccc(C(=O)c4ccc(Cl)cc4)c3)CC2)cc1	14 µM	8 µM	–
CCCN(C)c1ccc(CN2[C@@H]3CC[C@H]2CC(Oc2cccc(Oc4ccccc4)c2)C3)cc1 (stereo partly specified)	27 µM	17 µM	–
CCCN(C)c1ccc(CN2CCC(COc3cccc(Oc4ccccc4)c3)CC2)cc1	13 µM	8 µM	inhibition [3]: inactive; Activity [5]: Active; inhibition (INH) [6]: 100%; fold change (FC) [7]: 1; fold change (FC) [8]: >3
CCCN(C)c1ccc(CN2CCC(COc3cc(=O)n(C)c4ccccc34)CC2)cc1	102 µM	11 µM	–
c1ccc(Oc2cccc(OCC3CCN(Cc4ccc(N5CCOCC5)cc4)CC3)c2)cc1	–	21 µM	inhibition [3]: inactive
CCCN(C)c1ccc(CN2CCC(COc3ccc(Cl)cc3)CC2)cc1	22 µM	10 µM	inhibition [3]: inactive; Activity [5]: Active; inhibition (INH) [6]: 100%; fold change (FC) [7]: 1; Activity [9]: Active; Activity [10]: Active
CCCN(C)c1ccc(CN2CCC(COc3ccccc3F)CC2)cc1	18 µM	35 µM	–
CCCN(C)c1ccc(CN2CCC(COc3ccc(F)cc3)CC2)cc1	33 µM	14 µM	–
CCCN(C)c1ccc(CN2CCC(COc3cccc(C(=O)N4CCOCC4)c3)CC2)cc1	–	> 215 µM	IC50 [1]: Not Active
CCCN(C)c1ccc(CN2CCC(COc3ccc(Cl)cc3Cl)CC2)cc1	–	13 µM	–
CCCN(C)c1ccc(CN2CCC(COc3ccc(OC)cc3)CC2)cc1	–	18 µM	inhibition [3]: inactive
COc1ccc2ccc(OCCCCCCCCN3CCCCC3)cc2c1	–	–	MIC [11]: 8.1 µM (≈ 2.99 µg/mL)

SMILES	IC50 ([1]; read-out: IC50)	GI50 [2]	other results
CCCN(C)c1ccc(CN2CCCC(Oc3cccc(Oc4ccccc4)c3)C2)cc1 (stereo unspecified)	24 µM	37 µM	–
COc1ccc2ccc(OCCCCCCCCNCCc3ccc(F)cc3)cc2c1	–	–	MIC [11]: < 14.2 µM
CCCN(C)c1ccc(CN2CCC3(CC2)CC(Oc2ccc(Cl)cc2)CO3)cc1 (stereo unspecified)	> 50 µM	25 µM	–
CCCN(C)c1ccc(CN2CCC(COC3[C@H]4C[C@@H]5C[C@@H](C[C@H]3C5)C4)CC2)cc1 (stereo partly specified)	23 µM	6 µM	–
CCCN(C)c1ccc(CN2CCC(COc3c(F)cccc3F)CC2)cc1	25 µM	28 µM	–
CCCN(C)c1ccc(CN2CCC(CSc3ccccc3)CC2)cc1	18 µM	–	–
CCCN(C)c1ccc(CN2CCC(CSc3ccccc3C(=O)OC)CC2)cc1	–	–	inhibition [3]: inactive
CCCN(C)c1ccc(CN2CCC(COc3cccc(Br)c3)CC2)cc1	12 µM	14 µM	inhibition [3]: inactive
C=CCN(C)CCCCCCCCOc1ccc2ccc(OC)cc2c1	–	–	MIC [11]: 8.4 µM (≈ 2.99 µg/mL)
CCCN(C)c1ccc(CN2CCC(COc3nc4ccc(F)cc4s3)CC2)cc1	31 µM	–	IC50 [2]: 11 µM
CCCN(C)c1ccc(CN2C[C@@H]3C[C@H]2CN3Cc2ccc(N3CCOCC3)cc2)cc1	> 50 µM	149 µM	–
CCCN(C)c1ccc(CN2CCC(COc3ccc(C)cn3)CC2)cc1	> 50 µM	31 µM	–
CCCN(C)c1ccc(CN2CCC(COc3ccc4ccccc4c3)CC2)cc1	21 µM	7 µM	–
CCCN(C)c1ccc(CN2CCC(COc3noc4ccccc34)CC2)cc1	–	–	inhibition [3]: inactive
CCCN(C)c1ccc(CN2CCC(COc3cccc(Nc4ccccc4C)c3)CC2)cc1	22 µM	16 µM	inhibition [3]: inactive
CCCN(C)c1ccc(CN2CCC(COc3cccc(Cc4ccc(Cl)cc4)c3)CC2)cc1	55 µM	> 226 µM	–
